In US10017509B2, “Macrocylic pyrimidine derivatives” (Janssen Pharmaceutica NV, priority 2014, dated 2018):

Legend:
EF2K [1] = target: T1, EF2K (Homo sapiens, UniProt O00418); experiment: Biochemical EF2K lysate-based kinase assay (AlphaLISA p-eEF2 Thr56); settings: pIC50 = -log IC50 (M), read-out: eEF2K_C_alphalisa pIC50 (converted)
T1 construct: host or cells: LN-229 cell lysate
T1 sequence (O00418 1-725): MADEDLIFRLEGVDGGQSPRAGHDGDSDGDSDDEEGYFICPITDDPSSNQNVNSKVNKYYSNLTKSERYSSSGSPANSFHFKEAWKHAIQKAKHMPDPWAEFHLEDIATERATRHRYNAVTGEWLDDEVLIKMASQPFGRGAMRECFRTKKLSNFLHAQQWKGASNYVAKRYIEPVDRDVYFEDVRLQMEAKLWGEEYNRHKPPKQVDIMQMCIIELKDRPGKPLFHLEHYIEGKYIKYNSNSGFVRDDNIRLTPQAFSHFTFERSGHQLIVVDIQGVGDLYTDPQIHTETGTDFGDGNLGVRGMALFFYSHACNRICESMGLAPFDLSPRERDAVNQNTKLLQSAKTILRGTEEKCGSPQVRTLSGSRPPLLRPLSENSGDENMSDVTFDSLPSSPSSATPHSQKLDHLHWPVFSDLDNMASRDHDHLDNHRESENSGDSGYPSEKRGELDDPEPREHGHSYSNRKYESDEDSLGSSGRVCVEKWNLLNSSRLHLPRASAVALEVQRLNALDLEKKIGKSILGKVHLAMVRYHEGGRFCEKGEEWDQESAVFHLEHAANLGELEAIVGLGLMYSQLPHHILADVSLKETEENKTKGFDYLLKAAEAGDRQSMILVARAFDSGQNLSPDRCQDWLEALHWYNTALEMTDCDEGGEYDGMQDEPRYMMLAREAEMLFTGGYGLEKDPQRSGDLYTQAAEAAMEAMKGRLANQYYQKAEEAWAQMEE
Text: Biochemical EF2K Lysate-Based Kinase Assay
LN-229 cells were purchased from ATCC (CRL-2611); these are glioblastoma cells. Cell lysates from LN229 were used in this kinase assay to provide both the kinase and the substrate (EF2). The AlphaLISA p-eEF2 (Thr56) detection assay was developed using a sandwich assay format with two specific antibodies recognizing different epitopes of the target, including one antibody against the phosphorylation site of interest. One anti-eEF2 antibody was conjugated onto AlphaLISA Acceptor beads, while the second antibody was biotinylated and captured by streptavidin coated Donor beads.
Compound was mixed with LN-229 cell lysates in the presence of a kinase buffer (e.g. HEPES) at a pH of 6.6, containing 10 mM Mg^2+ (e.g. magnesium acetate) and 10 mM adenosine-tri-phosphate (ATP) and incubated at room temperature for 15 minutes. The kinase reaction was stopped with excess ethylenediaminetetraacetic acid disodium salt and the biotinylated-anti phospho eEF2 antibody (3 nM) was added for 1 hour. Then the anti-EF2 acceptor beads (10 μg/ml) as well as the streptavidin coated donor beads (20 μg/ml) were added for 1 hour, and the AlphaLISA signal was measured in an Envision instrument once, left overnight, and measured again for the final read.
(§1) (pIC50 is −log IC50 where IC50 represents the concentration expressed in M at which the test compound gives 50% inhibition)

EF2K [2] = target: T1, EF2K; experiment: EF2K cell-based assay (P-EF2 AlphaLISA, 2-deoxyglucose stimulated MCF10A cells); settings: 2.5 mM 2-deoxyglucose stimulated, P-EF2 Thr56, pIC50 = -log IC50 (M), read-out: eEF2K_C_PThr56 pIC50 (converted)
Description: In this assay, 2.5 mM 2-deoxyglucose was used to deplete intracellular ATP and activate 5′ adenosine monophosphate-activated protein kinase (AMPK) in the immortalized epithelial breast cell lines, MCF10A. MCF 10A cells were purchased from ATCC (CRL-10317).
MCF10A cells are seeded at a density of 1.25×10^5 Cells/ml at 100 μl/well in a 96-well plate and incubated for 24 hours (37° C., 5% CO2). Compound is added for 1 hour, and cell are stimulated with 2.5 mM of 2-deoxy-glucose for 4 hours. Medium is then removed, and cells are lysed in an ice-cold buffer M-PER (Thermo Scientific, 78501), containing protease and phosphatase inhibitors. P-EF2 levels are determined in these lysates using the P-EF2 AlphaLISA described above.
as §1

[3] = target: Vps34 (PIK3C3 lipid kinase) (Homo sapiens, UniProt Q8NEB9); experiment: Biochemical Vps34 lipid kinase assay (ADP-Glo); settings: for remaining activity at 1 µM: 1 h, read-out: VPS34_1microM_% of cntrl; for remaining activity at 1 µM / VPS34_1microM_% of cntrl: single dose 1 μM compound, residual activity compared to control (DMSO); for IC50: serial half-log dilution 10 μM to 0.3 nM, pIC50 = -log IC50 (M)
Description: Biochemical Vps34 Lipid Kinase Assay
A non-radiometric kinase assay (ADP-Glo™ Assay, Promega, Madison, Wi, USA) was used for measuring the kinase activity of the PIK3C3 lipid kinase. All kinase assays were performed in 96-well half-area microtiter plates in a 25 μl reaction volume. The reaction cocktail was pipetted in 3 steps in the following order: • 10 μl of ATP solution (in assay buffer, see below) • 5 μl of test sample in 5% DMSO 10 μl of enzyme/substrate mixture
All lipid kinase assays contained 50 mM HEPES (4-(2-hydroxyethyl)-1-piperazineethanesulfonic acid)-NaOH, pH 7.5, 1 mM EGTA ((ethylene glycol tetraacetic acid), 100 mM NaCl, 0.03% CHAPS (3-[(3-Cholamidopropyl)dimethylammonio]-1-propanesulfonate), 2 mM DTT (Dithiothreitol), 20 μM ATP (corresponding to the apparent ATP-Km), kinase (7.6 nM) and substrate (50 μM). The assay for PIK3C3 additionally contained 3 mM MnCl2.
The reaction cocktails were incubated at 30° C. for 60 minutes. The reaction was stopped with 25 μl ADP-Go™ reagent per well. Plates were incubated for 40 minutes at room temperature, followed by addition of 50 μl kinase detection reagent per well and incubation for 60 minutes at room temperature. Signal was determined with a microplate luminescence reader (Victor, Perkin Elmer). The assay was either performed using a single dose of compound (1 μM final concentration in the assay reaction) with resulting data expressed as residual activity compared to control (DMSO), or using a serial (half-log) dilution of compounds starting at 10 μM and down to 0.3 nM (final concentrations in the assay) with data expressed as the pIC50.
as §1

Vps34 (PIK3C3 lipid kinase), sequence (Q8NEB9 whole entry, species assumed): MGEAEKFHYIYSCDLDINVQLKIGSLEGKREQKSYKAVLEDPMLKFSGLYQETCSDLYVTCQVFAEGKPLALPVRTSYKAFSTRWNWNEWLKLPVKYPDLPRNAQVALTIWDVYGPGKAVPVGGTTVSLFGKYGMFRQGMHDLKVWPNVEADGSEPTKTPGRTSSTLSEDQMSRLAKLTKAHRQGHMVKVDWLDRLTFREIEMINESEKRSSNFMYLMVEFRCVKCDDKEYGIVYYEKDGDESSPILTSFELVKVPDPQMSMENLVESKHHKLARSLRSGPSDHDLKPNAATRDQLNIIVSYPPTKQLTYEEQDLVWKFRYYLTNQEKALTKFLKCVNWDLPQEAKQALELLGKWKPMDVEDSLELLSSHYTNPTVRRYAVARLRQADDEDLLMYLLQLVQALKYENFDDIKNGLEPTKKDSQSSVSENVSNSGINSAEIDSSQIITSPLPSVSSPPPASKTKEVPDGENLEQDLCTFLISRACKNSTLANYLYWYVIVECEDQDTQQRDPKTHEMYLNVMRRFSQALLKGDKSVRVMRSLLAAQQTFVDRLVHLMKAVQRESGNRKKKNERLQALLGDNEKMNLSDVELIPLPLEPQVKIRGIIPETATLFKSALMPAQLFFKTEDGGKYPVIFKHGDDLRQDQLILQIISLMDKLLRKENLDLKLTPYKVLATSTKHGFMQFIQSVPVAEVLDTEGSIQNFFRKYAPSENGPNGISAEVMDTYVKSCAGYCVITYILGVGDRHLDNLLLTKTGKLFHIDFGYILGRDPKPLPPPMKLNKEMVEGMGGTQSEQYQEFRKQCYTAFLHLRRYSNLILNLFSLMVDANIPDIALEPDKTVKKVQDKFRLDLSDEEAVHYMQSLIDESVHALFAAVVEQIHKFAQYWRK

SMILES | IC50 (EF2K [1]) | IC50 (EF2K [2]) | remaining activity at 1 µM [3] | IC50 [3] | VPS34_1microM_% of cntrl [3]
CN1CCCN(C)c2ccc(cn2)-c2ccnc(n2)Nc2cccc(c2)CN2CCN(CC1=O)C(=O)C2 [Compound 82] | 3.39e-07 M | > 3.02e-05 M | 10.8% | 4.07e-07 M | 
O=C1CN2CCN(CC2)Cc2cccc(c2)Nc2nccc(n2)-c2ccc(nc2)NCC(O)CN1 (single isomer, unassigned) [Compound 24] | ~6.46e-07 M | 1.1e-05 M |  | 1.23e-07 M | 10.54 % of cntrl
NC(=O)c1ccc2cc1CN1CCN(CC1)CC(=O)NCCCNc1ccc(cn1)-c1ccnc(n1)N2 [Compound 15] | 6.03e-07 M | 2.75e-05 M | 1.07% | 5.01e-08 M | 
CCCN1CCNC(=O)CN2CCN(CC2)Cc2cccc(c2)Nc2nccc(n2)-c2ccc(nc2)C1 [Compound 43] | 6.17e-09 M | 1.91e-07 M | 4.32% | 1.07e-07 M | 
CN1CCCN(C)c2ccc(cn2)-c2ccnc(n2)Nc2cccc(c2)CN2CCNC(CC1=O)C2 (stereo not shown) [Compound 128] | 1.82e-06 M | 2.63e-05 M | 5.81% | 1.02e-07 M | 
O=C1CN2CCN(CC2)Cc2cccc(c2)Nc2nccc(n2)-c2ccc(nc2)N2CC(O)CC2CCN1 (single isomer, unassigned) [Compound 96] | 6.76e-09 M | 1.26e-06 M |  | 1.32e-07 M | 
O=C1CNCCCNc2ccc(cn2)-c2ccnc(n2)Nc2cccc(c2)N2CCN1CC2 [Compound 111] | 4.47e-06 M | > 3.02e-05 M | 1.43% | 1.7e-07 M | 
O=C1CN2CCN(CC2)Cc2cc(F)cc(c2)Nc2nccc(n2)-c2ccc(nc2)NCCCN1 [Compound 5] | 7.59e-07 M | 2.51e-05 M | 7.3% | 6.92e-08 M | 
CN1CCCN(C)c2ccc(cn2)-c2ccnc(n2)Nc2cccc(c2)CC2CCN(CC2)CC1=O [Compound 109] | 1.35e-06 M | > 3.02e-05 M | 14.7% | 2.88e-07 M | 
CN(C)C(=O)c1ccc2cc1CN1CCN(CC1)CC(=O)NCCCNc1ccc(cn1)-c1ccnc(n1)N2 [Compound 18] | 1.91e-06 M | > 3.02e-05 M | 23.4% | 9.12e-07 M | 
NS(=O)(=O)N1CCNC(=O)CN2CCN(CC2)Cc2cccc(c2)Nc2nccc(n2)-c2ccc(nc2)C1 [Compound 134] | 1.29e-06 M | > 1e-05 M | 4.78% | 6.46e-08 M | 
O=C1CN2CCC(CC2)Cc2cccc(c2)Nc2nccc(n2)-c2ccc(nc2)NCCCN1 [Compound 115] | 2.14e-07 M | > 3.02e-05 M | 6.01% | 1.51e-07 M | 
CC(C)CN1CCNC(=O)CN2CCN(CC2)Cc2cccc(c2)Nc2nccc(n2)-c2ccc(nc2)C1 [Compound 38] | 8.91e-09 M | 1.86e-07 M |  | 7.76e-08 M | 
O=C1CN2CCN(Cc3cccc(c3)Nc3nccc(n3)-c3ccc(nc3)NCCCN1)C(CO)C2 (stereo not shown) [Compound 46] | 1.66e-07 M | 4.9e-06 M | 3.73% | 2.69e-08 M | 
NC(=O)C1CN2CCN1Cc1cccc(c1)Nc1nccc(n1)-c1ccc(nc1)NCCCNC(=O)C2 (stereo not shown) [Compound 59] | 5.75e-07 M | > 3.02e-05 M | 3.56% | 3.89e-08 M | 
CN1CCCNC(=O)CC2CCN(CC2)Cc2cccc(c2)Nc2nccc(n2)-c2ccc1nc2 [Compound 125] | 1.58e-05 M | > 3.02e-05 M | 28.4% | 3.39e-07 M | 
CC1CN2CCN1CC(=O)NCCCNc1ccc(cn1)-c1ccnc(n1)Nc1cccc(c1)C2 (single isomer, unassigned) [Compound 137] | 1.95e-06 M | > 3.02e-05 M |  | 8.13e-08 M | 8.17 % of cntrl
COCCN1CCNC(=O)CN2CCN(CC2)Cc2cccc(c2)Nc2nccc(n2)-c2ccc(nc2)C1 [Compound 42] | 3.24e-08 M | 4.27e-07 M | 10.2% | 3.02e-07 M | 
CC1CN2CCN1CC(=O)NCCCNc1ccc(cn1)-c1ccnc(n1)Nc1cccc(c1)C2 (stereo not shown) [Compound 49] | 3.89e-07 M | 2.34e-06 M | 37.4% |  | 
CN1CCN(C)c2ccc(cn2)-c2ccnc(n2)Nc2ccc(O)c(c2)CN2CCN(CC2)CC1=O [Compound 131] | 4.57e-07 M | 7.59e-06 M | 17.3% | 1.74e-07 M | 
Cc1cc2cc(c1)Nc1nccc(n1)-c1ccc(nc1)N(C)CCCN(C)C(=O)CN1CCN(CC1)C2 [Compound 8] | 1.41e-05 M | > 3.02e-05 M | 41.1% |  | 
CN1CCCN(C)c2ccc(cn2)-c2ccnc(n2)Nc2cccc(c2)CN2CCN(CC1=O)CC2CO (stereo not shown) [Compound 51] | 1.55e-07 M | 1.55e-05 M | 14.6% | 4.79e-07 M | 
C#CCN1CCNC(=O)CN2CCN(CC2)Cc2cccc(c2)Nc2nccc(n2)-c2ccc(nc2)C1 [Compound 36] | 4.37e-08 M | 1.32e-06 M | 16% | 3.39e-07 M | 
O=C1CN2CCN(CC2)Cc2cccc(c2)Nc2nccc(n2)-c2ccc(nc2)NCCCN1 [Compound 31] | 1.07e-07 M | ~3.98e-06 M | 8.47% | 8.71e-08 M | 
CN1CCCN(C)c2ccc(cn2)-c2ccnc(n2)Nc2cccc(c2)CN2CCN(CC1=O)CC2COCCN1CCNCC1 (stereo not shown) [Compound 107] | 3.24e-07 M | > 3.02e-05 M | 32.7% |  | 
CN1CCCN(C)c2ccc(cn2)-c2ccnc(n2)Nc2cccc(c2)CN2CCN(CC1=O)CC2COCCO (single isomer, unassigned) [Compound 104] | 1.78e-05 M | > 3.02e-05 M | 25.1% | 3.02e-07 M | 
CNC(=O)c1ccc2cc1CN1CCN(CC1)CC(=O)N(C)CCCN(C)c1ccc(cn1)-c1ccnc(n1)N2 [Compound 12] | 2.09e-07 M | 1.05e-05 M | 7.68% | 4.37e-07 M | 
